Measured values from the supplement of paper PMC10307832.

Tests used:
Assay in all cases: relative viability (nuclei count vs DMSO), 5 days (fraction); higher = more cells survive
Crenolanib + Tozasertib = compound: CC1(COc2ccc3c(c2)ncn3-c2ccc3cccc(N4CCC(N)CC4)c3n2)COC1 [Crenolanib] + Cc1cc(Nc2cc(N3CCN(C)CC3)nc(Sc3ccc(NC(=O)C4CC4)cc3)n2)n[nH]1 [Tozasertib] (partner 0.1 µM)
Method in brief: (§1)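 Relative viability equals treated-well nuclei counts divided by vehicle-well nuclei counts. Counts came from 4× images of lung cancer cell lines grown in 1536-well plates for 5 days after pin-tool dosing on the day after seeding. Dosing used one drug alone or a fixed anchor-drug dose plus five library-drug doses (not always all listed) in √10 steps, and values are medians of duplicate plates.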

Crenolanib + Olaparib = compound: CC1(COc2ccc3c(c2)ncn3-c2ccc3cccc(N4CCC(N)CC4)c3n2)COC1 [Crenolanib] + O=C(c1cc(Cc2n[nH]c(=O)c3ccccc23)ccc1F)N1CCN(C(=O)C2CC2)CC1 [Olaparib] (partner 8 µM)
Method in brief: as §1

Crenolanib + Lapatinib = compound: CC1(COc2ccc3c(c2)ncn3-c2ccc3cccc(N4CCC(N)CC4)c3n2)COC1 [Crenolanib] + CS(=O)(=O)CCNCc1ccc(-c2ccc3ncnc(Nc4ccc(OCc5cccc(F)c5)c(Cl)c4)c3c2)o1 [Lapatinib] (partner 2 µM)
Method in brief: as §1

Crenolanib + Bortezomib = compound: CC1(COc2ccc3c(c2)ncn3-c2ccc3cccc(N4CCC(N)CC4)c3n2)COC1 [Crenolanib] + CC(C)C[C@H](NC(=O)[C@H](Cc1ccccc1)NC(=O)c1cnccn1)B(O)O [Bortezomib] (partner 0.002 µM)
Method in brief: as §1

Row | Cell Line | relative viability (Crenolanib + Tozasertib; first compound 0.01 µM) | relative viability (Crenolanib + Tozasertib; first compound 0.03162 µM) | relative viability (Crenolanib + Tozasertib; first compound 0.1 µM) | relative viability (Crenolanib + Tozasertib; first compound 0.3162 µM) | relative viability (Crenolanib + Tozasertib; first compound 1 µM) | relative viability (Crenolanib + Olaparib; first compound 0.01 µM) | relative viability (Crenolanib + Olaparib; first compound 0.03162 µM) | relative viability (Crenolanib + Olaparib; first compound 0.1 µM) | relative viability (Crenolanib + Olaparib; first compound 0.3162 µM) | relative viability (Crenolanib + Olaparib; first compound 1 µM) | relative viability (Crenolanib + Lapatinib; first compound 0.01 µM) | relative viability (Crenolanib + Lapatinib; first compound 0.03162 µM) | relative viability (Crenolanib + Lapatinib; first compound 0.1 µM) | relative viability (Crenolanib + Lapatinib; first compound 0.3162 µM) | relative viability (Crenolanib + Lapatinib; first compound 1 µM) | relative viability (Crenolanib + Bortezomib; first compound 0.01 µM) | relative viability (Crenolanib + Bortezomib; first compound 0.03162 µM) | relative viability (Crenolanib + Bortezomib; first compound 0.1 µM) | relative viability (Crenolanib + Bortezomib; first compound 0.3162 µM) | relative viability (Crenolanib + Bortezomib; first compound 1 µM)
1 | NCI-H522 | 0.559 | 0.604 | 0.559 | 0.561 | 0.576 | 0.581 | 0.676 | 0.639 | 0.591 | 0.62 |  |  |  |  |  |  |  |  |  | 
2 | HCC-366 | 0.167 | 0.148 | 0.154 | 0.144 | 0.108 | 0.414 | 0.362 | 0.344 | 0.509 | 0.332 | 0.954 | 1.09 | 0.916 | 1.31 | 0.915 | 1.01 | 1.1 | 0.902 | 1.12 | 0.949
3 | A-427 | 0.209 | 0.237 | 0.224 | 0.181 | 0.225 | 0.79 |  | 0.759 | 0.847 | 0.629 | 0.996 | 0.998 | 1.04 | 1.06 | 1.06 | 0.961 | 1.12 | 0.987 | 1.01 | 1.03
4 | NCI-H23 | 0.358 | 0.394 | 0.385 | 0.313 | 0.27 | 0.311 | 0.278 | 0.282 | 0.347 | 0.341 | 1.04 | 1.16 | 0.977 | 1.22 | 0.992 | 0.892 | 1.2 | 0.865 | 1.16 | 0.696
5 | NCI-H1755 | 0.666 | 0.594 | 0.527 | 0.501 | 0.549 | 0.919 | 0.801 | 0.845 | 0.898 | 0.848 | 1.02 | 1.08 | 0.987 | 1.12 | 0.967 | 1.03 | 0.993 | 1.01 | 0.967 | 0.909
6 | EPLC-272H | 0.385 | 0.352 | 0.257 | 0.286 | 0.377 | 0.854 | 0.868 | 0.605 | 1.11 | 0.989 |  | 0.877 | 0.722 | 0.977 | 1.02 |  | 0.766 | 0.747 | 0.887 | 0.874
7 | PC-3 [JPC-3] | 0.889 | 0.856 | 0.81 | 0.902 | 0.87 | 1.26 |  | 1.01 | 1.06 | 1.06 | 0.452 | 0.45 | 0.511 | 0.449 | 0.452 | 0.814 | 0.889 | 0.779 | 0.831 | 0.749
8 | NCI-H1975 | 0.754 | 0.759 | 0.698 | 0.881 | 0.632 | 0.768 | 0.699 | 0.73 | 0.726 | 0.731 | 0.844 | 0.968 | 0.774 | 0.891 | 0.702 | 0.5 | 0.39 | 0.359 | 0.385 | 0.295
9 | NCI-H1703 |  |  |  |  |  | 0.376 | 0.383 | 0.175 | 0.242 | 0.192 | 1.14 | 0.713 | 0.262 | 0.257 | 0.189 | 0.419 | 0.231 | 0.218 | 0.207 | 0.181
10 | HCC-44 | 1.07 | 0.781 | 0.89 | 0.578 | 0.57 | 0.983 | 0.941 | 0.976 | 0.98 | 0.991 | 1.02 | 0.997 | 0.901 | 0.999 | 0.905 | 0.944 | 0.876 | 0.856 | 0.878 | 0.833
11 | SK-MES-1 | 0.899 | 0.832 | 0.847 | 0.912 | 0.746 | 0.759 | 0.705 | 0.682 | 0.791 | 0.674 | 0.449 | 0.504 | 0.422 | 0.467 | 0.458 |  |  |  |  | 
12 | NCI-H727 | 0.635 | 0.579 | 0.721 | 0.65 | 0.501 | 0.678 | 0.652 | 0.646 | 0.627 | 0.847 | 0.936 | 0.662 | 0.752 | 0.856 | 0.686 | 0.905 | 0.92 | 0.821 | 0.869 | 0.991
13 | RERF-LC-KJ | 0.532 | 0.469 | 0.527 | 0.487 | 0.461 | 0.864 | 0.942 | 0.871 | 1.03 | 0.93 | 0.917 | 0.886 | 0.903 | 0.872 | 0.812 | 1.26 | 1.15 | 1.11 | 1.1 | 1.12
14 | NCI-H1623 | 0.492 | 0.439 | 0.437 | 0.41 | 0.421 |  |  |  |  |  |  |  |  |  |  |  |  |  |  | 
15 | Calu-6 |  |  |  |  |  | 0.596 | 0.494 | 0.529 | 0.643 | 0.556 | 0.996 | 1.02 | 1.05 | 1.27 | 1.06 | 1.06 | 0.97 | 1.03 | 1.1 | 1.02
16 | LCLC-103H | 0.46 | 0.588 | 0.448 | 0.359 | 0.458 | 0.751 | 0.759 | 0.68 | 0.698 | 0.712 |  |  |  |  |  | 1.05 | 1.02 | 0.922 | 0.954 | 0.976
17 | CAL-12T | 0.314 | 0.349 | 0.294 | 0.343 | 0.36 | 0.746 | 0.694 | 0.721 | 0.771 | 0.725 | 0.73 | 0.618 | 0.661 | 0.703 | 0.821 | 1.05 | 0.667 | 1.23 | 1.02 | 0.789
18 | SK-LU-1 | 0.395 | 0.369 | 0.342 | 0.349 | 0.34 | 0.547 | 0.491 | 0.331 | 0.7 | 0.534 | 0.911 | 0.917 | 0.694 | 0.921 | 0.958 | 1.42 | 1.11 | 0.937 | 1.33 | 1
